Measurements published in patent US20240158341A1, “COMPOUND, MANUFACTURING METHOD THEREFOR, ANTIMICROBIAL AGENT, AND MEDICINAL DRUG” (Murata Manufacturing Co., Ltd., priority 2021, published 2024).

Experiments:
yeasts = experiment: Paper disc antimicrobial test, summary for yeasts; assay type: cell-based; settings: against yeasts
Description: (§1) An antimicrobial test against the following bacteria and fungi was performed using a paper disc (6 mm, manufactured by ADVANTEC) containing the compound (1a-1).
(§2) (3) Yeast • Candida albicans
(§3) An antimicrobial test was performed with a 10 μg/6 mm disc, using the culture solution of the above bacteria and fungi. The test was conducted in accordance with the method described in Koyama et al., Calpinactam, a new anti-mycobacterial agent, produced by Mortierella alpina FKI-4905, The Journal of Antibiotics (2010) 63, pages 183 to 186.

Staphylococcus aureus = experiment: Paper disc antimicrobial test; assay type: cell-based; settings: 10 μg/6 mm disc
Description: as §1
(§4) (1) Gram-Positive Bacteria • Mycobacterium smegmatis • Bacillus subtilis • Staphylococcus aureus • Micrococcus luteus
as §3

Micrococcus luteus = experiment: Paper disc antimicrobial test; assay type: cell-based; settings: 10 μg/6 mm disc
Description: as §1, §4, §3

Mycobacterium smegmatis = experiment: Paper disc antimicrobial test; assay type: cell-based; settings: 10 μg/6 mm disc
Description: as §1, §4, §3

Bacillus subtilis = experiment: Paper disc antimicrobial test; assay type: cell-based; settings: 10 μg/6 mm disc
Description: as §1, §4, §3

Candida albicans = experiment: Paper disc antimicrobial test; assay type: cell-based; settings: 10 μg/6 mm disc
Description: as §1, §2, §3

gram-positive bacteria [1] = experiment: Paper disc antimicrobial test, summary for gram-positive bacteria; assay type: cell-based; settings: against gram-positive bacteria
Description: as §1, §4, §3

gram-positive bacteria [2] = settings: against gram-positive bacteria; Non-Patent Literature 1; cited from earlier work

Molecule	antimicrobial action (yeasts)	Inhibitory zone (Staphylococcus aureus) [mm]	Inhibitory zone (Micrococcus luteus) [mm]	Inhibitory zone (Mycobacterium smegmatis) [mm]	Inhibitory zone (Bacillus subtilis) [mm]	Inhibitory zone (Candida albicans) [mm]	antimicrobial action (gram-positive bacteria [1])	antimicrobial activity (gram-positive bacteria [2])
[C-]#[N+][C@@H](Cc1ccc(O)c(-c2cc(C[C@H](NN)C(N)=O)ccc2O)c1)C(N)=O [compound (1a-1)]	showed an antimicrobial action	23	26	19	14	20	showed an antimicrobial action	
hazimycin A								had an antimicrobial activity
